# According to patent publication US6130058A, “Human NMDA R2A receptor subunit and isoforms of the human NMDA-R1 receptor subunit and encoding cDNAs” (Merck Sharpe & Dohme Ltd., priority 1992, dated 2000):
# Tests used:
# [1] = molecular target: recombinant R1a+R2A NMDA receptor expressed by population B cells (Homo sapiens, UniProt Q05586+Q12879); assay: Whole cell patch clamp electrophysiology on population B cells; assay type: cell-based
# Text: The nature of the NMDA receptor expressed by population B cells has been extensively characterised by electrophysiological techniques, using whole cell patch clamp.
# untransfected Ltk- cells = assay: Radioligand binding to untransfected Ltk- cells (control); set-up: species or system mouse
# Method: (§1) The nature of the recombinant R1a NMDA receptors prepared as described in Example 3 was addressed by characterization of the glycine site binding pharmacology, using the glycine site antagonist [^3 H]-L-689,560. For radioligand binding assays, cells which had been induced by culture in dexamethasone containing medium for 3-5 days were scraped off into 5 mM Tris-Acetate, pH 7.0 at 4° C. (buffer 1) and pelleted (20,000 rpm, Sorvall RC5C centrifuge). The cell pellet was resuspended in buffer 1, homogenised using an Ultra-Turrax homogeniser and then pelleted as above. This was repeated once more, and the cells then resuspended in 50 mM Tris-Acetate, pH 7.0 at 4° C. (buffer 2) at a protein concentration of 1 mg/ml. […] After 2 hours incubation on ice the membranes were harvested onto filters using a Brandel cell harvester, washed with cold buffer 2, and bound radioactivity determined by scintillation counting. Non-specific binding was determined in a parallel incubation containing 10 mM glycine. […]
# (§2) For radioligand binding assays, cells which had been induced by culture in dexamethasone, MgCl2 and D-AP5 containing medium for 3-5 days were scraped off into 5 mM Tris-Acetate, pH 7.0 at 4° C. […] After 2 hours at 25° C. in the presence of 30 μM glycine and 30 μM L-glutamate the membranes were washed with buffer 1 and bound radioactivity determined by scintillation counting. […]
# [2] = molecular target: T1, recombinant R1a NMDA receptors (Homo sapiens, UniProt Q05586); assay: [3H]-L-689,560 radioligand binding to membranes of R1a transfected Ltk- cells (population A); conditions: 1 nM radioligand, 100 μg protein, 2 hours on ice, dexamethasone-induced cells
# T1 construct: expressed in transfected cells
# Method: Ltk^- cells were obtained from the Salk Institute for Biological Studies, San Diego, Calif. Cells were grown at 37° C., 5-8% CO2, in Modified Eagles Medium containing penicillin, streptomycin and 10% fetal calf serum. […] For co-transfection, Ltk^- cells were plated in dishes (approx. 2×10^5 cells/dish) and grown overnight. The transfection was performed by calcium phosphate precipitation using a kit (purchased from 5 Prime→3 Prime Products, Westchester, Pa.). Co-transfection was performed according to manufacturers' instructions, using 5 μg of each subunit DNA construct per 10 cm dish of cells. After 2 days in culture the cells were divided 1:8 into culture medium containing 1 mg/ml neomycin [Geneticin (obtainable from Gibco BRL, Paisley, Scotland, United Kingdom)]. After a further week the concentration was increased to 1.5 mg/ml, and then 2 mg/ml 1 week after that. Resistant clones of cells were isolated and subcloned using cloning cylinders. Subclones were analysed using radioligand binding: subclones were grown in 10 cm culture dishes, and when confluent changed into culture medium containing 1 μM dexamethasone (obtainable from Sigma Chemical Company, Poole, Dorset, United Kingdom). […] Rev. Pharmacol. […] Non-specific binding was determined in a parallel incubation containing 10 mM glycine. […]
# [3] = molecular target: T2, recombinant R1a+R2A receptors (Homo sapiens, UniProt Q05586); assay: [3H]-L-689,560 radioligand binding to membranes of R1a+R2A transfected Ltk- cells (population B)
# T2 construct: expressed in transfected cells
# Method: as §1, §2
# [4] = molecular target: recombinant R1a+R2A NMDA receptors (Homo sapiens, UniProt Q05586+Q12879); assay: [3H]-dizocilpine radioligand binding to membranes of R1a+R2A transfected Ltk- cells (population B); conditions: 2 nM radioligand, 100 μg protein, 2 hours at 25° C., 30 μM glycine and 30 μM L-glutamate
# Method: Ltk^- cells were obtained from the Salk Institute for Biological Studies, San Diego, Calif. Cells were grown at 37° C., 5-8% CO2, in Modified Eagles Medium containing penicillin, streptomycin and 10% fetal calf serum. […] For co-transfection, Ltk^- cells were plated in dishes (approx. 2×10^5 cells/dish) and grown overnight. The transfection was performed by calcium phosphate precipitation using a kit (purchased from 5 Prime→3 Prime Products, Westchester, Pa.). Co-transfection was performed according to manufacturers' instructions, using 5 μg of each subunit DNA construct per 10 cm dish of cells. After 2 days in culture the cells were divided 1:8 into culture medium containing 1 mg/ml neomycin [Geneticin (obtainable from Gibco BRL, Paisley, Scotland, United Kingdom)]. […] Subclones were analysed using radioligand binding: subclones were grown in 10 cm culture dishes, and when confluent changed into culture medium containing 1 μM dexamethasone (obtainable from Sigma Chemical Company, Poole, Dorset, United Kingdom). […]
# For radioligand binding assays, cells which had been induced by culture in dexamethasone, MgCl2 and D-AP5 containing medium for 3-5 days were scraped off into 5 mM Tris-Acetate, pH 7.0 at 4° C. […] Non-specific binding was determined in a parallel incubation containing 100 μM dizocilpine.
structure (smiles),measurement,setting,value
"O=C(O)[C@H]1C[C@@H](CP(=O)(O)O)CCN1 (relative stereo) [CGS 19,755]",antagonism of the response to glutamate and glycine,[1],antagonised
"O=C(Nc1ccccc1)N[C@@H]1C[C@@H](C(=O)O)Nc2cc(Cl)cc(Cl)c21 (relative stereo) [[^3 H]-L-689,560]",binding to untransfected Ltk- cells,"untransfected Ltk- cells; [3H]-L-689,560 binding conditions, 1 nM",No binding
same,"level of [3H]-L-689,560 bound",[2],up to 3700 fmols/mg protein
same,"level of [3H]-L-689,560 bound",[3],up to 500 fmols/mg protein
"C[C@]12N[C@H](Cc3ccccc31)c1ccccc12 [[^3 H]-dizocilpine, dizocilpine]",binding to untransfected Ltk- cells,"untransfected Ltk- cells; [3H]-dizocilpine binding conditions, 2 nM",No binding
same,level of [3H]-dizocilpine bound,[4],up to 200 fmols/mg protein
